Reference: ChEMBL document CHEMBL3864162, “Discovery of potent inhibitors of the lysophospholipase autotaxin” (Bioorg Med Chem Lett, 2016)
pEC50, pIC50: −log10 of the molar value. One block for each compound: values may come before it.

Tests used:
Autotaxin [1] = molecular target: T1, Autotaxin (Homo sapiens, UniProt Q13822); test: Inhibition of human recombinant ATX using Rac-1-Palmitoyl-glycero-3-phosphocholine as substrate incubated for 2 hrs using ADHP fluorogenic peroxidase substrate by horseradish peroxidase/choline oxidase-coupled assay
Autotaxin [2] = molecular target: T1, Autotaxin; test: Inhibition of ATX in human plasma assessed as decrease in hydrolysis of lysophosphatidylcholine by measuring choline release after 24 hrs by horseradish peroxidase/choline oxidase-coupled assay; type: cell-free
[3] = Intrinsic clearance in CD1 mouse liver microsomes assessed per gram of liver at 1 uM in presence of NADPH regenerating system measured up to 45 mins by UPLC/MS/MS analysis; type: ADME; conditions: 0.75 h
[4] = Blood clearance in CD1 mouse at 1 mg/kg, iv administered as bolus dose measured up to 7 hrs by UPLC/MS/MS spectrometry analysis; type: ADME, organism-based
[5] = Half life in CD1 mouse blood at 1 mg/kg, iv administered as bolus dose measured up to 7 hrs by UPLC/MS/MS spectrometry analysis; type: ADME, organism-based
[6] = Volume of distribution at steady state in CD1 mouse at 1 mg/kg, iv administered as bolus dose measured up to 7 hrs by UPLC/MS/MS spectrometry analysis; type: ADME, organism-based; conditions: in vivo, read-out: Vdss
[7] = Cmax in Balb-c nu/nu mouse at 10 mg/kg, po measured up to 7 hrs by UPLC/MS/MS spectrometry analysis; type: ADME, organism-based; design: dose 10 mg/kg, route oral; conditions: in vivo
[8] = Intrinsic clearance in rat liver microsomes assessed per gram of liver; type: ADME
[9] = Cmax in Balb-c nu/nu mouse at 30 mg/kg, po measured up to 7 hrs by UPLC/MS/MS spectrometry analysis; type: ADME, organism-based; design: dose 30 mg/kg, route oral; conditions: in vivo
Mus musculus [10] = organism: Mus musculus; test: animal or person; conditions: Balb-c, Plasma
Description: Reduction in plasma LPA C20:4 levels in po dosed Balb-c nu/nu mouse xenografted with human MDA-MB-231-luc cells by UPLC/MS/MS analysis

Autotaxin [11] = molecular target: T1, Autotaxin; test: Inhibition of ATX in human plasma assessed as decrease in LPA C18:1 levels after 24 hrs by horseradish peroxidase/choline oxidase-coupled assay
[12] = Half life in Sprague-Dawley rat blood at 1 mg/kg, iv administered as bolus dose or 3 mg/kg, po administered via gastric gavage measured up to 20 hrs by UPLC/MS/MS spectrometry analysis; type: ADME, organism-based
[13] = Half life in Balb-c nu/nu mouse blood at 30 mg/kg, po measured up to 7 hrs by UPLC/MS/MS spectrometry analysis; type: ADME, organism-based
[14] = Half life in Balb-c nu/nu mouse blood at 100 mg/kg, po measured up to 7 hrs by UPLC/MS/MS spectrometry analysis; type: ADME, organism-based
Mus musculus [15] = organism: Mus musculus; test: animal or person; conditions: Balb-c, Plasma; remark: listed apart in the source
Description: Reduction in plasma LPA C18:2 levels in po dosed Balb-c nu/nu mouse xenografted with human MDA-MB-231-luc cells by UPLC/MS/MS analysis

Mus musculus [16] = test: Toxicity in Balb-c nu/nu mouse at 100 mg/kg, po bid administered for 5 days; type: organism-based; conditions: in vivo, 120 h
Mus musculus [17] = test: Reduction in plasma LPA C20:4 levels in Balb-c nu/nu mouse xenografted with human MDA-MB-231-luc cells at 30 to 100 mg/kg, po by UPLC/MS/MS analysis relative to control; type: functional
[18] = AUC in Balb-c nu/nu mouse at 30 mg/kg, po measured up to 7 hrs by UPLC/MS/MS spectrometry analysis; type: ADME, organism-based; design: time < 7 hr, dose 30 mg/kg, route oral; conditions: in vivo
in vivo [19] = conditions: Balb-c nu/nu, mouse, blood, po, 30 mg/kg
Mus musculus [20] = test: Reduction in plasma LPA C16:0 levels in Balb-c nu/nu mouse xenografted with human MDA-MB-231-luc cells at 30 to 100 mg/kg, po by UPLC/MS/MS analysis relative to control; type: functional
[21] = Cmax in Balb-c nu/nu mouse at 100 mg/kg, po measured up to 7 hrs by UPLC/MS/MS spectrometry analysis; type: ADME, organism-based; design: dose 100 mg/kg, route oral; conditions: in vivo
Mus musculus [22] = test: Reduction in plasma LPA C18:1 levels in Balb-c nu/nu mouse xenografted with human MDA-MB-231-luc cells at 30 to 100 mg/kg, po by UPLC/MS/MS analysis relative to control; type: functional
Mus musculus [23] = organism: Mus musculus; test: animal or person; conditions: Balb-c, Plasma; remark: listed apart in the source
Description: Reduction in plasma LPA C16:0 levels in po dosed Balb-c nu/nu mouse xenografted with human MDA-MB-231-luc cells by UPLC/MS/MS analysis

in vivo [24] = conditions: Sprague-Dawley, rat, po, 3 mg/kg
[25] = AUC in Balb-c nu/nu mouse at 100 mg/kg, po measured up to 7 hrs by UPLC/MS/MS spectrometry analysis; type: ADME, organism-based; design: dose 100 mg/kg, time < 7 hr, route oral; conditions: in vivo
in vivo [26] = conditions: Balb-c nu/nu, mouse, blood, po, 100 mg/kg
[27] = Intrinsic clearance in human liver microsomes assessed per gram of liver at 1 uM in presence of NADPH regenerating system measured up to 45 mins by UPLC/MS/MS analysis; type: ADME; conditions: 0.75 h
[28] = Fraction unbound in mouse plasma; type: ADME, cell-free
Mus musculus [29] = test: Reduction in plasma LPA C18:2 levels in Balb-c nu/nu mouse xenografted with human MDA-MB-231-luc cells at 30 to 100 mg/kg, po by UPLC/MS/MS analysis relative to control; type: functional
[30] = Half life in Balb-c nu/nu mouse blood at 10 mg/kg, po measured up to 7 hrs by UPLC/MS/MS spectrometry analysis; type: ADME, organism-based
[31] = Fraction unbound in rat plasma; type: ADME, cell-free
Mus musculus [32] = organism: Mus musculus; test: animal or person; conditions: Balb-c, Plasma; remark: listed apart in the source
Description: Reduction in plasma LPA C18:1 levels in po dosed Balb-c nu/nu mouse xenografted with human MDA-MB-231-luc cells by UPLC/MS/MS analysis

[33] = Blood clearance in Sprague-Dawley rat at 1 mg/kg, iv administered as bolus dose measured up to 20 hrs by UPLC/MS/MS spectrometry analysis; type: ADME, organism-based
[34] = AUC in Balb-c nu/nu mouse at 10 mg/kg, po measured up to 7 hrs by UPLC/MS/MS spectrometry analysis; type: ADME, organism-based; design: time < 7 hr, dose 10 mg/kg, route oral; conditions: in vivo
[35] = Blood clearance in CD1 mouse at 0.5 mg/kg, iv administered as bolus dose measured up to 7 hrs by UPLC/MS/MS spectrometry analysis; type: ADME, organism-based
[36] = Volume of distribution at steady state in CD1 mouse at 0.5 mg/kg, iv administered as bolus dose measured up to 7 hrs by UPLC/MS/MS spectrometry analysis; type: ADME, organism-based; conditions: in vivo, read-out: Vdss
[37] = Half life in CD1 mouse blood at 0.5 mg/kg, iv administered as bolus dose measured up to 7 hrs by UPLC/MS/MS spectrometry analysis; type: ADME, organism-based

SMILES: O=C(CCc1nc2cccnc2n1Cc1ccccc1)NCc1ccccn1
pIC50 (Autotaxin [1]): 4.96

SMILES: C[C@H](NC(=O)CCc1nc2ccncc2n1Cc1ccc(OC(F)(F)F)cc1)c1ccc(Cl)cc1
clearance [4]: 73 mL/min/kg
half-life [5]: 8.4 min
pIC50 (Autotaxin [2]): 7.47
CLH [3]: 18.1 mL/min/g
Vd [6]: 0.2 L/kg

SMILES: C[C@H](NC(=O)CCc1nc2cccnc2n1Cc1ccc(OC(F)(F)F)cc1)c1ccc(Cl)cc1 [CAMBRITAXESTAT]
Cmax [7]: 3.8 µM
CLH [8]: 15 mL/min/g
Cmax [9]: 10.9 µM
pEC50 (Mus musculus [10]): 7.34
pIC50 (Autotaxin [1]): 9.00
pIC50 (Autotaxin [11]): 7.42
half-life [12]: 324 min
half-life [13]: 54 min
half-life [14]: 78 min
clearance [4]: 41 mL/min/kg
pEC50 (Mus musculus [15]): 7.52
Activity (Mus musculus [16]): Non-Toxic
half-life [5]: 60 min
pIC50 (Autotaxin [2]): 7.62 to 7.85
%max (Mus musculus [17]): 89 - 93%
AUC at 7 h [18]: 15.2 µM·h
bioavailability at 7 h (in vivo [19]): 64%
%max (Mus musculus [20]): 89 - 93%
Cmax [21]: 18.1 µM
%max (Mus musculus [22]): 89 - 93%
pEC50 (Mus musculus [23]): 8.10
bioavailability at 20 h (in vivo [24]): 28%
AUC at 7 h [25]: 59.3 µM·h
bioavailability at 7 h (in vivo [26]): 75%
CLH [27]: 9.4 mL/min/g
CLH [3]: 44.1 mL/min/g
fraction unbound [28]: 0.018
%max (Mus musculus [29]): 89 - 93%
half-life [30]: 84 min
fraction unbound [31]: 0.02
Vd [6]: 1.3 L/kg
pEC50 (Mus musculus [32]): 7.89
clearance [33]: 19 mL/min/kg
AUC at 7 h [34]: 3.2 µM·h

SMILES: C[C@H](NC(=O)CSc1nc2cccnc2n1Cc1ccc(OC(F)(F)F)cc1)c1ccc(F)cc1
clearance [4]: 81 mL/min/kg
half-life [5]: 12 min
pIC50 (Autotaxin [2]): 7.72
CLH [3]: 71.5 mL/min/g
Vd [6]: 0.3 L/kg

SMILES: O=C(CCc1nc2cccnc2n1Cc1ccccc1)NCc1cccc(F)c1
pIC50 (Autotaxin [1]): 5.90

SMILES: COc1ccc(Cn2c(CCC(=O)N[C@@H](C)c3ccc(Cl)cc3)nc3cccnc32)cc1
pIC50 (Autotaxin [2]): 6.67

SMILES: O=C(CCc1nc2cccnc2n1Cc1ccccc1)NCc1ccccc1F
pIC50 (Autotaxin [1]): 5.90

SMILES: C[C@H](NC(=O)CCc1nc2cccnc2n1Cc1ccc(OC(F)F)cc1)c1ccc(Cl)cc1
pIC50 (Autotaxin [1]): 8.70
clearance [4]: 62 mL/min/kg
half-life [5]: 22.2 min
pIC50 (Autotaxin [2]): 7.36
CLH [3]: 52.8 mL/min/g
Vd [6]: 0.4 L/kg

Results, then the compound that gave them:

pIC50 (Autotaxin [2]): 5.24
CLH [3]: 15.3 mL/min/g
SMILES: O=C(CCc1nc2cccnc2n1Cc1ccccc1)NCc1ccc(Cl)cc1

clearance [4]: 67 mL/min/kg
half-life [5]: 9 min
pIC50 (Autotaxin [2]): 5.98
CLH [3]: 10 mL/min/g
Vd [6]: 0.3 L/kg
SMILES: C[C@H](NC(=O)NCc1nc2cccnc2n1Cc1ccc(F)cc1)c1ccc(F)cc1

pIC50 (Autotaxin [2]): 6.09
CLH [3]: 15.6 mL/min/g
SMILES: C[C@H](NC(=O)COc1nc2cccnc2n1Cc1ccc(F)cc1)c1ccc(F)cc1

pIC50 (Autotaxin [1]): 6.44
pIC50 (Autotaxin [2]): 5.48
CLH [3]: 21.8 mL/min/g
SMILES: C[C@H](NC(=O)OCc1nc2cccnc2n1Cc1ccc(F)cc1)c1ccc(F)cc1

pIC50 (Autotaxin [1]): 8.30
clearance [4]: 73 mL/min/kg
half-life [5]: 9.6 min
pIC50 (Autotaxin [2]): 7.59
CLH [3]: 4.4 mL/min/g
Vd [6]: 0.2 L/kg
SMILES: O=C(CCc1nc2cccnc2n1Cc1ccc(F)cc1)N[C@@H](CO)c1ccc(Cl)cc1

pIC50 (Autotaxin [1]): 6.35
pIC50 (Autotaxin [2]): 5.01
CLH [27]: 17.4 mL/min/g
CLH [3]: 30.8 mL/min/g
SMILES: O=C(CCc1nc2cccnc2n1Cc1ccccc1)NCC1CCCCC1

clearance [35]: 78 mL/min/kg
pIC50 (Autotaxin [2]): 7.00
Vd [36]: 0.4 L/kg
half-life [37]: 12 min
CLH [3]: 10.8 mL/min/g
SMILES: C[C@H](NC(=O)COc1nc2cccnc2n1Cc1ccc(OC(F)(F)F)cc1)c1ccc(Cl)cc1

pIC50 (Autotaxin [1]): 5.53
SMILES: COc1cccc(CNC(=O)CCc2nc3cccnc3n2Cc2ccccc2)c1
